Results: ChEMBL document CHEMBL1201861, “Genomics of Drug Sensitity in Cancer screening data, Wellcome Trust Sanger Institute”

Assays:
HCC1599 = assay: cells; format: functional, cell-based; settings: Homo sapiens;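 further: growth inhibition of HCC1599 cells, read out in a cell viability assay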
Description: SANGER: Inhibition of human HCC1599 cell growth in a cell viability assay.

NCI-H345 = assay: cells; format: functional, cell-based; settings: Homo sapiens;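 further: growth inhibition of NCI-H345 cells measured with a cell viability assay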
Description: SANGER: Inhibition of human NCI-H345 cell growth in a cell viability assay.

YT = assay: cells; format: functional, cell-based; settings: Homo sapiens
Description: SANGER: Inhibition of human YT cell growth in a cell viability assay.

EB2 = assay: cells; format: functional, cell-based; settings: Homo sapiens;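 further: growth inhibition of EB2 cells, read out with a cell viability assay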
Description: SANGER: Inhibition of human EB2 cell growth in a cell viability assay.

MRK-nu-1 = assay: cells; format: functional, cell-based; settings: Homo sapiens;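 further: cell viability assay measuring growth suppression of human MRK-nu-1 cells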
Description: SANGER: Inhibition of human MRK-nu-1 cell growth in a cell viability assay.

BL-70 = assay: SANGER: Inhibition of human BL-70 cell growth in a cell viability assay.; format: functional, cell-based
BL-41 = assay: cells; format: functional, cell-based; settings: Homo sapiens;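 further: growth inhibition of human BL-41 cells, read out with a cell viability assay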
Description: SANGER: Inhibition of human BL-41 cell growth in a cell viability assay.

NCI-H1694 = assay: cells; format: functional, cell-based; settings: Homo sapiens;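 further: cell viability assay measuring inhibition of growth in human NCI-H1694 cells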
Description: SANGER: Inhibition of human NCI-H1694 cell growth in a cell viability assay.

NCI-H889 = assay: cells; format: functional, cell-based; settings: Homo sapiens;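 further: cell growth inhibition of the cell line, read out with a viability assay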
Description: SANGER: Inhibition of human NCI-H889 cell growth in a cell viability assay.

TALL-1 = assay: cells; format: functional, cell-based; settings: Homo sapiens;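 further: growth inhibition of cultured human TALL-1 cells, read out by a cell viability assay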
Description: SANGER: Inhibition of human TALL-1 cell growth in a cell viability assay.

MONO-MAC-6 = assay: cells; format: functional, cell-based; settings: Homo sapiens;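 further: cell viability assay measuring growth inhibition of human MONO-MAC-6 cells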
Description: SANGER: Inhibition of human MONO-MAC-6 cell growth in a cell viability assay.

LP-1 = assay: cells; format: functional, cell-based; settings: Homo sapiens;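 further: growth inhibition of human LP-1 cells, with the read-out taken from a cell viability assay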
Description: SANGER: Inhibition of human LP-1 cell growth in a cell viability assay.

P31-FUJ = assay: cells; format: functional, cell-based; settings: Homo sapiens;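 further: growth inhibition of P31-FUJ cells, read out with a viability assay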
Description: SANGER: Inhibition of human P31-FUJ cell growth in a cell viability assay.

NCI-H1963 = assay: cells; format: functional, cell-based; settings: Homo sapiens;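 further: cell growth inhibition of the human line, determined with a cell viability assay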
Description: SANGER: Inhibition of human NCI-H1963 cell growth in a cell viability assay.

PF-382 = assay: cells; format: functional, cell-based; settings: Homo sapiens
Description: SANGER: Inhibition of human PF-382 cell growth in a cell viability assay.

HT-1376 = assay: cells; format: functional, cell-based; settings: Homo sapiens
Description: SANGER: Inhibition of human HT-1376 cell growth in a cell viability assay.

SW626 = assay: cells; format: functional, cell-based; settings: Homo sapiens;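 further: growth inhibition of SW626 cells, measured with a cell viability assay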
Description: SANGER: Inhibition of human SW626 cell growth in a cell viability assay.

HO-1-N-1 = assay: cells; format: functional, cell-based; settings: Homo sapiens;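 further: growth inhibition of human HO-1-N-1 cells, read out with a cell viability assay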
Description: SANGER: Inhibition of human HO-1-N-1 cell growth in a cell viability assay.

COLO-792 = assay: cells; format: functional, cell-based; settings: Homo sapiens
Description: SANGER: Inhibition of human COLO-792 cell growth in a cell viability assay.

MDA-MB-231 = assay: cells; format: functional, cell-based; settings: Homo sapiens
Description: SANGER: Inhibition of human MDA-MB-231 cell growth in a cell viability assay.

HCC1937 = assay: cells; format: functional, cell-based; settings: Homo sapiens;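 further: growth inhibition measured with a cell viability read-out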
Description: SANGER: Inhibition of human HCC1937 cell growth in a cell viability assay.

A-375 = assay: cells; format: functional, cell-based; settings: Homo sapiens;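 further: growth inhibition of A375 cells, read out with a cell viability assay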
Description: SANGER: Inhibition of human A375 cell growth in a cell viability assay.

A 172 = assay: cells; format: functional, cell-based; settings: Homo sapiens;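 further: growth inhibition of A172 cells, measured with a cell viability readout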
Description: SANGER: Inhibition of human A172 cell growth in a cell viability assay.

BFTC-905 = assay: cells; format: functional, cell-based; settings: Homo sapiens
Description: SANGER: Inhibition of human BFTC-905 cell growth in a cell viability assay.

GMS-10 = assay: cells; format: functional, cell-based; settings: Homo sapiens;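 further: growth inhibition of GMS-10 cells, read out as cell viability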
Description: SANGER: Inhibition of human GMS-10 cell growth in a cell viability assay.

LK-2 = assay: cells; format: functional, cell-based; settings: Homo sapiens;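 further: growth inhibition of LK-2 cells, read out with a viability assay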
Description: SANGER: Inhibition of human LK-2 cell growth in a cell viability assay.

Calu-3 = assay: cells; format: functional, cell-based; settings: Homo sapiens;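 further: growth inhibition of human Calu-3 cells, determined with a cell viability assay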
Description: SANGER: Inhibition of human Calu-3 cell growth in a cell viability assay.

HN = assay: cells; format: functional, cell-based; settings: Homo sapiens
Description: SANGER: Inhibition of human HN cell growth in a cell viability assay.

NCI-H2228 = assay: cells; format: functional, cell-based; settings: Homo sapiens;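 further: growth inhibition of human NCI-H2228 cells, read out by a cell viability assay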
Description: SANGER: Inhibition of human NCI-H2228 cell growth in a cell viability assay.

COR-L105 = assay: cells; format: functional, cell-based; settings: Homo sapiens
Description: SANGER: Inhibition of human COR-L105 cell growth in a cell viability assay.

786-0 = assay: cells; format: functional, cell-based; settings: Homo sapiens
Description: SANGER: Inhibition of human 786-0 cell growth in a cell viability assay.

OVCAR-5 = assay: cells; format: functional, cell-based; settings: Homo sapiens;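 further: growth inhibition of human OVCAR-5 cells, read out with a cell viability assay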
Description: SANGER: Inhibition of human OVCAR-5 cell growth in a cell viability assay.

NCI-H2030 = assay: cells; format: functional, cell-based; settings: Homo sapiens;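 further: growth inhibition of human NCI-H2030 cells, read out by a cell viability assay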
Description: SANGER: Inhibition of human NCI-H2030 cell growth in a cell viability assay.

SK-HEP1 = assay: cells; format: functional, cell-based, SK-HEP-1; settings: Homo sapiens;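 further: cell viability readout used to quantify reduction in proliferation of human SK-HEP-1 cells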
Description: SANGER: Inhibition of human SK-HEP-1 cell growth in a cell viability assay.

SNU-449 = assay: cells; format: functional, cell-based; settings: Homo sapiens
Description: SANGER: Inhibition of human SNU-449 cell growth in a cell viability assay.

NCI-H596 = assay: cells; format: functional, cell-based; settings: Homo sapiens;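 further: growth inhibition of NCI-H596 cells, read out with a cell viability assay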
Description: SANGER: Inhibition of human NCI-H596 cell growth in a cell viability assay.

MFE-280 = assay: cells; format: functional, cell-based; settings: Homo sapiens;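 further: growth inhibition of MFE-280 cells, determined with a cell viability readout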
Description: SANGER: Inhibition of human MFE-280 cell growth in a cell viability assay.

8505C = assay: cells; format: functional, cell-based; settings: Homo sapiens
Description: SANGER: Inhibition of human 8505C cell growth in a cell viability assay.

NB12 = assay: cells; format: functional, cell-based; settings: Homo sapiens;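 further: growth inhibition of human NB12 cells, read out by a cell viability assay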
Description: SANGER: Inhibition of human NB12 cell growth in a cell viability assay.

ESS-1 = assay: cells; format: functional, cell-based; settings: Homo sapiens;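 further: growth inhibition of human ESS-1 cells, read out by a cell viability assay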
Description: SANGER: Inhibition of human ESS-1 cell growth in a cell viability assay.

NY = assay: cells; format: functional, cell-based; settings: Homo sapiens
Description: SANGER: Inhibition of human NY cell growth in a cell viability assay.

CAL-27 = assay: cells; format: functional, cell-based; settings: Homo sapiens;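 further: Viability-based readout, IC50 reflecting inhibition of CAL-27 cell growth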
Description: SANGER: Inhibition of human CAL-27 cell growth in a cell viability assay.

HTC-C3 = assay: cells; format: functional, cell-based; settings: Homo sapiens;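 further: inhibition of cell growth, read out with a cell viability assay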
Description: SANGER: Inhibition of human HTC-C3 cell growth in a cell viability assay.

RPMI-2650 = assay: cells; format: functional, cell-based; settings: Homo sapiens
Description: SANGER: Inhibition of human RPMI-2650 cell growth in a cell viability assay.

BHY = assay: cells; format: functional, cell-based; settings: Homo sapiens;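 further: cell growth inhibition read out by a viability assay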
Description: SANGER: Inhibition of human BHY cell growth in a cell viability assay.

CAL-54 = assay: cells; format: functional, cell-based; settings: Homo sapiens;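 further: growth inhibition of CAL-54 cells, read out by a viability measurement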
Description: SANGER: Inhibition of human CAL-54 cell growth in a cell viability assay.

MDA-MB-415 = assay: cells; format: functional, cell-based; settings: Homo sapiens
SK-OV-3 = assay: cells; format: functional, cell-based; settings: Homo sapiens;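 further: growth inhibition of SK-OV-3 human cells, read out with a cell viability assay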
Description: SANGER: Inhibition of human SK-OV-3 cell growth in a cell viability assay.

SK-MEL-30 = assay: cells; format: functional, cell-based; settings: Homo sapiens;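 further: growth inhibition of SK-MEL-30 cells, determined with a cell viability assay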
Description: SANGER: Inhibition of human SK-MEL-30 cell growth in a cell viability assay.

VMRC-RCZ = assay: cells; format: functional, cell-based; settings: Homo sapiens
Description: SANGER: Inhibition of human VMRC-RCZ cell growth in a cell viability assay.

UO-31 = assay: cells; format: functional, cell-based; settings: Homo sapiens
Description: SANGER: Inhibition of human U031 cell growth in a cell viability assay.

D-542MG = assay: cells; format: functional, cell-based; settings: Homo sapiens
Description: SANGER: Inhibition of human D-542MG cell growth in a cell viability assay.

CAL-12T = assay: cells; format: functional, cell-based, Homo sapiens; settings: Homo sapiens, CAL-12T;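 further: growth inhibition of human CAL-12T cells, read out with a cell viability assay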
Description: SANGER: Inhibition of human CAL-12T cell growth in a cell viability assay.

RERF-LC-MS = assay: cells; format: functional, cell-based; settings: Homo sapiens;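 further: growth inhibition of human RERF-LC-MS cells, read out by a cell viability assay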
Description: SANGER: Inhibition of human RERF-LC-MS cell growth in a cell viability assay.

SiHa = assay: cells; format: functional, cell-based; settings: Homo sapiens;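 further: Viability-based readout of growth inhibition in SiHa cells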
Description: SANGER: Inhibition of human SiHa cell growth in a cell viability assay.

RD = assay: cells; format: functional, cell-based; settings: Homo sapiens
Description: SANGER: Inhibition of human RD cell growth in a cell viability assay.

NCI-H2170 = assay: cells; format: functional, cell-based; settings: Homo sapiens;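 further: cell viability assay measuring growth inhibition of human NCI-H2170 cancer cells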
Description: SANGER: Inhibition of human NCI-H2170 cell growth in a cell viability assay.

769-P = assay: cells; format: functional, cell-based; settings: Homo sapiens
Description: SANGER: Inhibition of human 769-P cell growth in a cell viability assay.

647-V = assay: cells; format: functional, cell-based; settings: Homo sapiens;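 further: growth inhibition of 647-V cells, read out with a cell viability assay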
Description: SANGER: Inhibition of human 647-V cell growth in a cell viability assay.

KYSE-150 cell line = assay: cells; format: functional, cell-based; settings: Homo sapiens;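 further: growth inhibition of human KYSE-150 cells, read out with a cell viability assay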
Description: SANGER: Inhibition of human KYSE-150 cell growth in a cell viability assay.

SW1990 = assay: cells; format: functional, cell-based; settings: Homo sapiens
Description: SANGER: Inhibition of human SW1990 cell growth in a cell viability assay.

SW756 = assay: cells; format: functional, cell-based; settings: Homo sapiens;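 further: growth inhibition of human SW756 cells, read out with a cell viability assay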
Description: SANGER: Inhibition of human SW756 cell growth in a cell viability assay.

23132-87 = assay: cells; format: functional, cell-based; settings: Homo sapiens
Description: SANGER: Inhibition of human 23132-87 cell growth in a cell viability assay.

HOS = assay: cells; format: functional, cell-based; settings: Homo sapiens;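 further: growth inhibition of human HOS cells, read out with a cell viability assay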
Description: SANGER: Inhibition of human HOS cell growth in a cell viability assay.

In the case of `Cc1nc(Nc2ncc(C(=O)Nc3c(C)cccc3Cl)s2)cc(N2CCN(CCO)CC2)n1` [DASATINIB], the IC50 (HCC1599) is reported as greater than 1280 nM, the IC50 (NCI-H345) is reported as greater than 1280 nM and the IC50 (YT) is reported as greater than 1280 nM. The IC50 (EB2) was greater than 1280 nM, the IC50 (MRK-nu-1) was greater than 1280 nM and the IC50 (BL-70) was less than 5 nM. It also gave an IC50 (BL-41) of 291 nM, an IC50 (NCI-H1694) greater than 1280 nM and an IC50 (NCI-H889) greater than 1280 nM. For the same molecule, the IC50 (TALL-1) was greater than 1280 nM, the IC50 (MONO-MAC-6) was greater than 1280 nM and the IC50 (LP-1) was greater than 1280 nM. For the same molecule, the IC50 (P31-FUJ) was greater than 1280 nM, the IC50 (NCI-H1963) was greater than 1280 nM and the IC50 (PF-382) was 177 nM.

For `COc1cc(C)c(Sc2cnc(NC(=O)c3ccc(CNC(C)C(C)(C)C)cc3)s2)cc1C(=O)N1CCN(C(C)=O)CC1` (centres undefined), the IC50 (HCC1599) was greater than 10200 nM, the IC50 (NCI-H345) was greater than 10200 nM and the IC50 (YT) was greater than 10200 nM. For the same molecule, the IC50 (EB2) was greater than 10200 nM, the IC50 (MRK-nu-1) was 8300 nM and the IC50 (BL-70) was greater than 10200 nM. For the same molecule, the IC50 (BL-41) was greater than 10200 nM, the IC50 (NCI-H1694) was greater than 10200 nM and the IC50 (NCI-H889) was greater than 10200 nM. The IC50 (TALL-1) was greater than 10200 nM, the IC50 (MONO-MAC-6) was 6670 nM and the IC50 (LP-1) was greater than 10200 nM. It also gave an IC50 (P31-FUJ) greater than 10200 nM, an IC50 (NCI-H1963) greater than 10200 nM and an IC50 (PF-382) greater than 10200 nM.

`CCNc1cc(N[C@H]2CC[C@@H](O)CC2)nc(Nc2ccc3c(ccn3Cc3ccccc3)c2)n1` showed an IC50 (HCC1599) greater than 5120 nM, an IC50 (NCI-H345) greater than 5120 nM and an IC50 (YT) greater than 5120 nM. For the same molecule, the IC50 (EB2) was greater than 5120 nM, the IC50 (MRK-nu-1) was 3090 nM and the IC50 (BL-70) was greater than 5120 nM. The IC50 (BL-41) was greater than 5120 nM, the IC50 (NCI-H1694) was greater than 5120 nM and the IC50 (NCI-H889) was greater than 5120 nM. The IC50 (TALL-1) was greater than 5120 nM, the IC50 (MONO-MAC-6) was greater than 5120 nM and the IC50 (LP-1) was greater than 5120 nM. It also gave an IC50 (P31-FUJ) greater than 5120 nM, an IC50 (NCI-H1963) greater than 5120 nM and an IC50 (PF-382) greater than 5120 nM.

`Cc1[nH]c(/C=C2\C(=O)Nc3ccc(S(=O)(=O)Cc4c(Cl)cccc4Cl)cc32)c(C)c1C(=O)N1CCC[C@@H]1CN1CCCC1` [PHA-665752] showed an IC50 (HCC1599) greater than 2000 nM, an IC50 (NCI-H345) greater than 2000 nM and an IC50 (YT) greater than 2000 nM. The IC50 (EB2) was greater than 2000 nM, the IC50 (MRK-nu-1) was greater than 2000 nM and the IC50 (BL-70) was greater than 2000 nM. The IC50 (BL-41) was greater than 2000 nM, the IC50 (NCI-H1694) was greater than 2000 nM and the IC50 (NCI-H889) was greater than 2000 nM. It also gave an IC50 (TALL-1) greater than 2000 nM, an IC50 (MONO-MAC-6) greater than 2000 nM and an IC50 (LP-1) greater than 2000 nM. For the same molecule, the IC50 (P31-FUJ) was greater than 2000 nM, the IC50 (NCI-H1963) was greater than 2000 nM and the IC50 (PF-382) was greater than 2000 nM.

For `Cc1n[nH]c2ccc(-c3cncc(OC[C@@H](N)Cc4c[nH]c5ccccc45)c3)cc12` [A-443654], the IC50 (HCC1599) was 162 nM, the IC50 (NCI-H345) was 750 nM and the IC50 (YT) was greater than 1020 nM. For the same molecule, the IC50 (EB2) was greater than 1020 nM, the IC50 (MRK-nu-1) was 104 nM and the IC50 (BL-70) was 57 nM. It also gave an IC50 (BL-41) of 96.3 nM, an IC50 (NCI-H1694) of 509 nM and an IC50 (NCI-H889) greater than 1020 nM. The IC50 (TALL-1) was 242 nM, the IC50 (MONO-MAC-6) was 77.2 nM and the IC50 (LP-1) was greater than 1020 nM. For the same molecule, the IC50 (P31-FUJ) was greater than 1020 nM, the IC50 (NCI-H1963) was 392 nM and the IC50 (PF-382) was 638 nM.

Molecule `CC[C@]1(O)C[C@@H]2CN(CCc3c([nH]c4ccccc34)[C@@](C(=O)OC)(c3cc4c(cc3OC)N(C)[C@H]3[C@@](O)(C(=O)OC)[C@H](OC(C)=O)[C@]5(CC)C=CCN6CC[C@]43[C@@H]65)C2)C1` [VINBLASTINE] has an IC50 (HT-1376) of 60.4 nM, an IC50 (SW626) of 23.2 nM and an IC50 (HO-1-N-1) of 1.76 nM. The IC50 (COLO-792) was 25.6 nM, the IC50 (MDA-MB-231) was 44.6 nM and the IC50 (HCC1937) was greater than 100 nM. The IC50 (A-375) was 23.5 nM, the IC50 (A 172) was 9.62 nM and the IC50 (BFTC-905) was 3.77 nM. It also gave an IC50 (GMS-10) of 11.3 nM, an IC50 (LK-2) of 7.5 nM and an IC50 (Calu-3) greater than 100 nM. The IC50 (HN) was 4.15 nM, the IC50 (NCI-H2228) was 41.1 nM and the IC50 (COR-L105) was 65.7 nM. It also gave an IC50 (786-0) of 15.6 nM, an IC50 (OVCAR-5) of 13.6 nM and an IC50 (NCI-H2030) of 27.7 nM. The IC50 (SK-HEP1) was 12.1 nM, the IC50 (SNU-449) was greater than 100 nM and the IC50 (NCI-H596) was greater than 100 nM. For the same molecule, the IC50 (MFE-280) was 36.1 nM, the IC50 (8505C) was 3.11 nM and the IC50 (NB12) was 61.4 nM. It also gave an IC50 (ESS-1) of 4.88 nM, an IC50 (NY) greater than 100 nM and an IC50 (CAL-27) of 2.09 nM. It also gave an IC50 (HTC-C3) of 10.4 nM, an IC50 (RPMI-2650) of 26.6 nM and an IC50 (BHY) of 15.3 nM. For the same molecule, the IC50 (CAL-54) was 60.6 nM, the IC50 (MDA-MB-415) was 18.5 nM and the IC50 (SK-OV-3) was greater than 100 nM. It also gave an IC50 (SK-MEL-30) greater than 100 nM, an IC50 (VMRC-RCZ) of 19.3 nM and an IC50 (UO-31) of 13.9 nM. The IC50 (D-542MG) was greater than 100 nM, the IC50 (CAL-12T) was 56 nM and the IC50 (RERF-LC-MS) was 15.1 nM. For the same molecule, the IC50 (SiHa) was greater than 100 nM, the IC50 (RD) was 4.17 nM and the IC50 (NCI-H2170) was 33.4 nM. The IC50 (769-P) was 25.6 nM, the IC50 (647-V) was 23 nM and the IC50 (KYSE-150 cell line) was 46.5 nM. It also gave an IC50 (SW1990) of 61.4 nM, an IC50 (SW756) of 14.7 nM and an IC50 (23132-87) of 20.6 nM. The IC50 (HOS) was 6.25 nM.
